The text below walks through data of article PMC6026847, “Synthesis and Evaluation of the First Fluorescent Antagonists of the Human P2Y2 Receptor Based on AR-C118925” (Journal of Medicinal Chemistry, 2018).

Where two headings read alike, the source gives them in different places. Bounds are passed on as bounds.

The target in test [1] is T1, hP2Y2R (Homo sapiens, UniProt P41231).
T1 construct: The 1321N1 cells expressing wild-type P2Y2R (P2Y2R-1321N1) were gifted by Dr. Elizabeth Rosethorne; expressed in transfected cells; host or cells: 1321N1 astrocytoma cells (P2Y2R-1321N1), gifted
T1 sequence (P41231 whole entry): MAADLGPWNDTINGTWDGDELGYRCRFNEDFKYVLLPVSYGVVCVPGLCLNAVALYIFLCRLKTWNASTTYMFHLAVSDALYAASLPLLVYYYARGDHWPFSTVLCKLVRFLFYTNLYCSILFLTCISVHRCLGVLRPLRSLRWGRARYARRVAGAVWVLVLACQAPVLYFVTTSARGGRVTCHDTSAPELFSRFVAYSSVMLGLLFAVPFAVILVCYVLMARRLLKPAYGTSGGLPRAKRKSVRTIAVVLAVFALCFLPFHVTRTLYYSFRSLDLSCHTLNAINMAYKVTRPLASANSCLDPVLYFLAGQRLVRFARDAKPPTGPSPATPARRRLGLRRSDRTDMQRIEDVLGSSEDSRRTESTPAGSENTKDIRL
Kind of test: Calcium-mobilization assay in P2Y2-1321N1 cells (antagonism of UTPγS). Format: cell-based.

Another test addresses T2, NLuc-P2Y2R (Homo sapiens, UniProt P41231).
T2 construct: expressed in transfected cells
Kind of test: NanoBRET saturation binding in NLuc-P2Y2R 1321N1 astrocytoma cells. The note with it: for specific NanoBRET signal: fixed 10 μM fluorescent conjugate in presence or absence of 10 μM 1, among 78–91 (Figure S1); for NanoBRET pKd: Table 4. The procedure: To determine whether any of these conjugates had affinities for P2Y2R and consequently if they could be used in NanoBRET binding assays, a 1321N1 astrocytoma cell line expressing recombinant P2Y2R tagged on its N-terminus with NLuc (NLuc-P2Y2R) was generated. […] These NLuc-P2Y2 cells were treated with increasing concentrations of 66–69 and then treated with the NLuc substrate, furimazine, before the resulting BRET signal was monitored. […] However, this did illustrate the power of using NanoBRET to monitor ligand binding to low-affinity receptors.
Nucleophilic displacement of the 2-chloro substituent of 43 by either tert-butyl 3-aminopropanoate or tert-butyl 6-aminohexanoate gave the corresponding tert-butyl esters (70 and 71). […] The carboxylic acids were generated from the tert-butyl esters via TFA-mediated hydrolysis and subsequently coupled with tert-butyl (2-aminoethyl)carbamate or tert-butyl (2-(2-aminoethoxy)ethyl)carbamate to generate the corresponding amides (74–77). The Boc protecting groups were removed using TFA, and the resulting amines were coupled with the appropriate commercially available BODIPY succinimidyl ester (SE), generating a small library of 14 fluorescent conjugates (78–91). These fluorescent conjugates were initially tested using the aforementioned NanoBRET binding assay at fixed concentrations of 10 μM in the presence or absence of 10 μM 1 (see Figure S1 in the Supporting Information).
The saturation and competition binding assays were performed according to the methodology of Stoddart.[18] Briefly, the assays were performed on stably transfected NLucP2Y2-1321N1 cells that had been seeded 24 h prior to the experiment in white Thermo Scientific Matrix 96-well microplates. The medium in each well was removed and replaced with HBSS containing apyrase (1 U/mL) and the required concentration of the fluorescent ligand with or without the competing ligand. Upon the addition of the fluorescent ligand, the cells were incubated for 1 h at 37 °C without CO2. The NLuc substrate, furimazine (Promega), was then added to a final concentration of 10 μM, and the plate was incubated for a further 5 min at 37 °C without CO2. The luminescence and resulting BRET were measured using a PHERAstar FS plate reader (BMG Labtech) at room temperature. For the assays involving 97, sequential measurements of the filtered light emissions were made at 460 nm (80 nm bandpass) and >610 nm (long-pass), and the raw BRET ratios were calculated by dividing the >610 nm emissions by the 460 nm emissions. For the assays involving 98, the measurements were made at 475 nm (30 nm bandpass) and 535 nm (30 nm bandpass), and the raw BRET ratios were calculated by dividing the 535 nm emissions by the 475 nm emissions.
The total and nonspecific saturation binding curves were fitted simultaneously using eq 2: [drawing 7] 2 where Bmax is the maximum specific BRET signal, [b] is the nanomolar concentration of the fluorescent ligand, Kd is the equilibrium dissociation constant in nanomolar, M is the slope of the nonspecific-binding component, and C is the intercept with the Y-axis. The pKd is −logKd.

Test [2] concerns the target T1, hP2Y2R. Kind of test: Confocal microscopy of fluorescent ligands on 1321N1 astrocytoma cells expressing hP2Y2R. Format: cell-based. The procedure:
The P2Y2R-1321N1 cells were grown to approximately 80% confluency on eight-well Labtek chambered cover glasses (Nunc Nalgene) in normal growth medium. The growth medium was removed and replaced with HBSS containing apyrase (1 U/mL) and either 1 (10 μM) or the vehicle, and the cells incubated for 30 min at 37 °C without CO2. The cells were then incubated with 97 or 98 at the required concentration for 10 min at room temperature prior to the collection of the single-equatorial confocal images. The images were obtained on a Zeiss LSM710 confocal microscope using a 40× c-Apochromat 1.2NA water-immersion objective. For 97, the images were collected using a 633 nm excitation wavelength and a 488/561/633 dichroic, and the emissions were collected through a 650LP filter. For 98, a 488 nm excitation wavelength was used with the same dichroic, and the emissions were collected using an LP575 filter. In each case, a pinhole diameter of 1 airy unit was used, and the laser power, gain, and offset were kept the same for all of the samples within each experiment. For both 97 and 98, the images presented are as representative of an individual experiment with matched conditions. Linear adjustments to the image brightness and contrast have been applied equally across all of the comparative images using Zen software in order to prepare the images for presentation.

The mark [3] stands for this setting: Table 3, resolved enantiomers, Gaddum equation, shift of UTPγS curve, mean ± SEM, read-out: hP2Y2 pKb (converted).
[4] abbreviates: Table 7, Gaddum equation, shift of agonist dose–response curve by a single antagonist concentration, mean ± SEM, read-out: pKb Ca2+ mobilization (converted).
Where [5] appears, read: saturation binding curves, 1321N1 cells expressing NLuc-P2Y2R, mean ± SEM.

T2 sequence (P41231 2-377 limits assumed): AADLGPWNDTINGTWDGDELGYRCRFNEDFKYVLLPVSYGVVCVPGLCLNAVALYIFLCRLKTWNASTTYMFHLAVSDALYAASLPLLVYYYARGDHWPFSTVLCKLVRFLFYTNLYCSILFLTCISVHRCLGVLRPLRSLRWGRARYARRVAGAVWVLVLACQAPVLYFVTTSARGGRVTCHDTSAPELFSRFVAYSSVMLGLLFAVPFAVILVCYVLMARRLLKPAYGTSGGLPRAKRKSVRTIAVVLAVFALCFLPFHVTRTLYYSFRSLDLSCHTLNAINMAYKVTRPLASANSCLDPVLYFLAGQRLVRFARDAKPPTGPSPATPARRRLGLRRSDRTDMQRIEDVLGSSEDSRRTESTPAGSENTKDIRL

For the molecule `COCCNc1nc2c(s1)C=Cc1cc(Cl)ccc1C2c1cn(C)c(=O)[nH]c1=S` (centres unmarked) [Example 20], at hP2Y2R [1] (setting [3]), the Kb is 234 nM. Turning to `COCCNc1nc2c(s1)C=Cc1cc(Cl)ccc1C2c1cn(C)c(=O)[nH]c1=S` (centres unmarked) [Example 21], the Kb at hP2Y2R [1] (setting [3]) is 1510 nM. For `CCOCCNc1nc2c(s1)C=Cc1cc(Cl)ccc1C2c1cn(C)c(=O)[nH]c1=S` (centres unmarked) [Example 22], the “hP2Y2 pKb” value on hP2Y2R [1] (Table 3, resolved enantiomers, Gaddum equation, shift of UTPγS curve, mean ± SEM) was “IA ^c (3) (IA = inactive; i.e., less than a 50% inhibition of the response to 0.1 μM UTPγS in the presence of a 10 μM concentration of the compound (n = 3))”. Also, the Kb at hP2Y2R [1] (setting [4]) was more than 10000 nM.

For `CCOCCNc1nc2c(s1)C=Cc1cc(Cl)ccc1C2c1cn(C)c(=O)[nH]c1=S` (centres unmarked) [Example 23], on hP2Y2R [1] (setting [3]), the Kb is 166 nM. With `COCCNc1nc2c(s1)C=Cc1cc(Cl)ccc1C2c1cn(Cc2nc(C(=O)Nc3nnn[nH]3)cs2)c(=O)[nH]c1=S` (centres unmarked) [Example 24, 2-((5-(7-Chloro-2-((2-methoxyethyl)amino)-4H-benzo[5,6]cyclohepta[1,2-d]thiazol-4-yl)-2-oxo-4-thioxo-3,4-dihydropyrimidin-1(2H)-yl)methyl)-N-(1H-tetrazol-5-yl)thiazole-4-carboxamide], at hP2Y2R [1] (quoted in text for nonfluorescent antagonists, mean ± SEM, read-out: hP2Y2R affinity pKd (converted)), the Kd was 95.5 nM. With `Cn1cc(C2c3ccc(Cl)cc3C=Cc3sc(NCCC(=O)NCCOCCOCCNC(=O)CCCCCNC(=O)COc4ccc(/C=C/C5=[N+]6C(=Cc7ccc(-c8cccs8)n7[B-]6(F)F)C=C5)cc4)nc32)c(=S)[nH]c1=O` (centres unmarked) [Example 80, (E)-N-(2-(2-(2-(3-((7-Chloro-4-(1-methyl-2-oxo-4-thioxo-1,2,3,4-tetrahydropyrimidin-5-yl)-4H-benzo[5,6]cyclohepta[1,2-d]thiazol-2-yl)amino)propanamido)ethoxy)ethoxy)ethyl)-6-(2-(4-(2-(5,5-difluoro-7-(thiophen-2-yl)-5H-4λ^4,5λ^4-dipyrrolo[1,2-c:2′,1′-f][1,3,2]diazaborinin-3-yl)vinyl)phenoxy)acetamido)hexanamide], the Kd at NLuc-P2Y2R (Table 5, saturation binding curves, 1321N1 cells expressing NLuc-P2Y2R, mean ± SEM, read-out: pKd (converted)) was 5130 nM. On NLuc-P2Y2R, the “specific NanoBRET signal” value is “largest specific NanoBRET signals”. As for `Cc1cc(C)n2c1C=C1C=CC(CCC(=O)NCCNC(=O)CCNc3nc4c(s3)C=Cc3cc(Cl)ccc3C4c3cn(C)c(=O)[nH]c3=S)=[N+]1[B-]2(F)F` (centres unmarked) [Example 85, 3-((7-Chloro-4-(1-methyl-2-oxo-4-thioxo-1,2,3,4-tetrahydropyrimidin-5-yl)-4H-benzo[5,6]cyclohepta[1,2-d]thiazol-2-yl)amino)-N-(2-(3-(5,5-difluoro-7,9-dimethyl-5H-4λ^4,5λ^4-dipyrrolo[1,2-c:2′,1′-f][1,3,2]diazaborinin-3-yl)propanamido)ethyl)propanamide], on NLuc-P2Y2R, the “specific NanoBRET signal” value was “largest specific NanoBRET signals”. With `Cc1cc(C)n2c1C=C1C=CC(CCC(=O)NCCCCCC(=O)NCCNC(=O)CCNc3nc4c(s3)C=Cc3cc(Cl)ccc3C4c3cn(C)c(=O)[nH]c3=S)=[N+]1[B-]2(F)F` (centres unmarked) [Example 86, N-(2-(3-((7-Chloro-4-(1-methyl-2-oxo-4-thioxo-1,2,3,4-tetrahydropyrimidin-5-yl)-4H-benzo[5,6]cyclohepta[1,2-d]thiazol-2-yl)amino)propanamido)ethyl)-6-(3-(5,5-difluoro-7,9-dimethyl-5H-4λ^4,5λ^4-dipyrrolo[1,2-c:2′,1′-f][1,3,2]diazaborinin-3-yl)propanamido)hexanamide], the Kb at hP2Y2R [1] (setting [4]) was 501 nM. Moreover, the “specific NanoBRET signal” value on NLuc-P2Y2R was “largest specific NanoBRET signals”. With `Cc1cc(C)n2c1C=C1C=CC(CCC(=O)NCCCCCC(=O)NCCOCCOCCNC(=O)CCNc3nc4c(s3)C=Cc3cc(Cl)ccc3C4c3cn(C)c(=O)[nH]c3=S)=[N+]1[B-]2(F)F` (centres unmarked) [Example 87, N-(2-(2-(2-(3-((7-Chloro-4-(1-methyl-2-oxo-4-thioxo-1,2,3,4-tetrahydropyrimidin-5-yl)-4H-benzo[5,6]cyclohepta[1,2-d]thiazol-2-yl)amino)propanamido)ethoxy)ethoxy)ethyl)-6-(3-(5,5-difluoro-7,9-dimethyl-5H-4λ^4,5λ^4-dipyrrolo[1,2-c:2′,1′-f][1,3,2]diazaborinin-3-yl)propanamido)hexanamide], the “specific NanoBRET signal” value on NLuc-P2Y2R is “largest specific NanoBRET signals”.

With `O=C(CCCCCNC(=O)COc1ccc(/C=C/C2=[N+]3C(=Cc4ccc(-c5cccs5)n4[B-]3(F)F)C=C2)cc1)NCCNC(=O)CCNc1nc2c(s1)C=Cc1cc(Cl)ccc1C2c1cn(Cc2nc(C(=O)Nc3nnn[nH]3)cs2)c(=O)[nH]c1=S` (centres unmarked) [Example 97, (E)-2-((5-(7-Chloro-2-((3-((2-(6-(2-(4-(2-(5,5-difluoro-7-(thiophen-2-yl)-5H-4λ^4,5λ^4-dipyrrolo[1,2-c:2′,1′-f][1,3,2]diazaborinin-3-yl)vinyl)phenoxy)acetamido)hexanamido)ethyl)amino)-3-oxopropyl)amino)-4H-benzo[5,6]cyclohepta[1,2-d]thiazol-4-yl)-2-oxo-4-thioxo-3,4-dihydropyrimidin-1(2H)-yl)methyl)-N-(1H-tetrazol-5-yl)thiazole-4-carboxamide], the Kb on hP2Y2R [1] (10 μM fluorescent ligand, rightward shift of agonist dose–response curve, hP2Y2R-1321N1 cells, read-out: pKb (converted)) is 2040 nM. The “membrane-specific fluorescence after pretreatment with 1” value at hP2Y2R [2] (100 nM fluorescent ligand plus 10 μM 1, 30 min at 37 °C) is “substantially reduced”. Moreover, the “confocal imaging: fluorescence localisation” value on hP2Y2R [2] (100 nM fluorescent ligand, 1321N1 astrocytoma cells expressing hP2Y2R) is “localized membrane fluorescence and very little intracellular fluorescence”. Regarding “(E)-N1-(2-(6-(2-(4-(2-(5,5-Difluoro-7-(thiophen-2-yl)-5H-4λ^4,5λ^4-dipyrrolo[1,2-c:2′,1′-f][1,3,2]diazaborinin-3-yl)vinyl)phenoxy)acetamido)hexanamido)ethyl)-5-((5-(2,8-dimethyl-5H-dibenzo[a,d][7]annulen-5-yl)-2-oxo-4-thioxo-3,4-dihydropyrimidin-1(2H)-yl)methyl)-N3-(1H-tetrazol-5-yl)isophthalamide [Example 67]”, on NLuc-P2Y2R (setting [5]), the “NanoBRET pKd” value is on record as 5.78 ± 0.18 (3). Still for that read-out and setting: the value for “(E)-N1-(18-(4-(2-(5,5-Difluoro-7-(thiophen-2-yl)-5H-4λ^4,5λ^4-dipyrrolo[1,2-c:2′,1′-f][1,3,2]diazaborinin-3-yl)vinyl)phenoxy)-10,17-dioxo-3,6-dioxa-9,16-diazaoctadecyl)-5-((5-(2,8-dimethyl-5H-dibenzo[a,d][7]annulen-5-yl)-2-oxo-4-thioxo-3,4-dihydropyrimidin-1(2H)-yl)methyl)-N3-(1H-tetrazol-5-yl)isophthalamide [Example 69]” was 6.07 ± 0.15 (3).
